How the values were obtained:
schizophrenia [1] = experiment: case history: schizophrenia, E-EPA added to clozapine; type: in vivo, human; conditions: patient not responding to typical neuroleptics; clozapine up to 900 mg/day
From the text: This mechanism is thought to be responsible for their rapid effects on the so-called “positive” symptoms of schizophrenia (such as hallucinations, delusions and thought disorder). […] The D2 blocking action is also responsible for many of the adverse effects of these drugs, which include extrapyramidal movement disorders, excess prolactin secretion, and tardive dyskinesias. Examples of widely used drugs in this class include chlorpromazine, thioridazine, haloperidol, pimozide, flupenthixol and sulpiride.
These may include blockade of one or more of the other dopamine receptors such as D1, D3 or D4, and also usually including blockade of one or more classes of serotonin receptors. […] They may also have actions at other receptors, including histamine, glutamate and acetyl choline receptors.
The patient was treated with clozapine, eventually reaching a maximum dose of 900 mg/day.
E-EPA in a dose of 2 g/day was then administered in addition to clozapine.

[2] = test system: attention deficit hyperactivity disorder (ADHD); experiment: case report: child with ADHD; type: in vivo, human; conditions: before ethyl-EPA
From the text: Attention deficit hyperactivity disorder (ADHD): ADHD and closely related conditions like attention deficit disorder and conduct disorders are commonly found in children. Occasionally they may be successfully treated by behaviour modification and other psychological techniques or by careful attention to diet. However, in most cases, paradoxical treatment with one of the stimulant drugs related in their action to amphetamine is required. Methylphenidate and dextroamphetamine are the commonest used. A child with serious ADHD since infancy was driving their parents to distraction. […] The parents were concerned about the long term consequences of stimulant drugs. The child was therefore tried on two capsules of pure ethyl-EPA per day. […] The child became less tense and irritable, less hyperactive, more open to reasoned discussion and enormously less disruptive both at home and school. Even when their methylphenidate was stopped, their behaviour remained improved.

schizophrenia [3] = experiment: case history: schizophrenia, ethyl-EPA added to haloperidol; type: in vivo, human; conditions: person
From the text: A person had become ill with schizophrenia. They had florid hallucinations and paranoia, but also withdrew themself from most of their friendships and lived alone. […] They lived alone, ceased to communicate with most of their friends, and went around to town alone and muttering to […]. Their psychiatrist heard about ethyl-EPA and decided to try it in addition to the standard drug. After eight weeks on treatment with 4 g/day their outlook was transformed. […] They were even persuaded to go on holiday with their family where they enjoyed themself and made new friends. The EPA therefore reversed the extreme withdrawal which appeared to have been exaggerated by haloperidol.

[4] = target: human brain enzyme FACL-4 (Homo sapiens, UniProt O60488); conditions: cited from earlier work
tardive dyskinesia = experiment: patients with neuroleptic-induced tardive dyskinesia treated with EPA; type: in vivo, human; conditions: several patients
From the text: The typical neuroleptics in some patients produce a distressing condition called tardive dyskinesia. […] The patient experiences uncontrollable twitching and other movements. These can affect any part of the body but commonly affect the face where they are particularly distressing. Facial twitches and movements, including protrusions and uncontrollable movements of the tongue occur. […] Movements have become substantially less and in some patients have disappeared completely.

phospholipase A2 = conditions: cited from earlier work
[5] = test system: patients who had schizophrenia; experiment: randomised, placebo-controlled study of ethyl-EPA in clozapine-treated patients with schizophrenia (PANSS, MADRS); type: in vivo, human; conditions: 12 weeks, patients on clozapine
From the text: Although the case reports of the effects of ethyl-EPA are convincing and in some cases dramatic, unequivocal proof of its efficacy must come from randomised, placebo-controlled trials. We therefore set up a randomised, placebo-controlled study of EPA in 34 patients who had schizophrenia according to the criteria set out in the American Psychiatric Association's Diagnostic and Statistical Manual of Mental Disorders (4th edition, DSM-IV). All of these patients were being treated with clozapine drugs but all remained seriously ill, with schizophrenic symptoms. Like many schizophrenics, some of the patients were also depressed. All were assessed at baseline and after 12 weeks using the Positive and Negative Symptom Scale for Schizophrenia (PANSS) and the Montgomery-Asberg Depression Rating Scale (MADRS). After giving informed consent, all the patients were randomised on a double blind basis to one of three groups: placebo, or 1 g or 2 g of ethyl-EPA per day in the form of 0.5 g capsules. Placebo and EPA capsules were indistinguishable from one another in appearance. All the patients improved to some degree so all the changes are percentage improvements

[6] = test system: schizophrenia, drug-induced obesity; type: in vivo, human; conditions: in vivo
From the text: Obesity is another common side effect of antipsychotropic drugs. In this respect some of the newer drugs like olanzapine frequently seem to be even worse offenders than the typical neuroleptics. […] They preferred the olanzapine but it still left their withdrawn and unable to communicate normally with friends or family. To their distress it caused them to put on over 10 kg in weight. Their doctor decided to test ethyl-EPA in addition to olanzapine.

human brain enzyme FACL-4, sequence (O60488 whole entry): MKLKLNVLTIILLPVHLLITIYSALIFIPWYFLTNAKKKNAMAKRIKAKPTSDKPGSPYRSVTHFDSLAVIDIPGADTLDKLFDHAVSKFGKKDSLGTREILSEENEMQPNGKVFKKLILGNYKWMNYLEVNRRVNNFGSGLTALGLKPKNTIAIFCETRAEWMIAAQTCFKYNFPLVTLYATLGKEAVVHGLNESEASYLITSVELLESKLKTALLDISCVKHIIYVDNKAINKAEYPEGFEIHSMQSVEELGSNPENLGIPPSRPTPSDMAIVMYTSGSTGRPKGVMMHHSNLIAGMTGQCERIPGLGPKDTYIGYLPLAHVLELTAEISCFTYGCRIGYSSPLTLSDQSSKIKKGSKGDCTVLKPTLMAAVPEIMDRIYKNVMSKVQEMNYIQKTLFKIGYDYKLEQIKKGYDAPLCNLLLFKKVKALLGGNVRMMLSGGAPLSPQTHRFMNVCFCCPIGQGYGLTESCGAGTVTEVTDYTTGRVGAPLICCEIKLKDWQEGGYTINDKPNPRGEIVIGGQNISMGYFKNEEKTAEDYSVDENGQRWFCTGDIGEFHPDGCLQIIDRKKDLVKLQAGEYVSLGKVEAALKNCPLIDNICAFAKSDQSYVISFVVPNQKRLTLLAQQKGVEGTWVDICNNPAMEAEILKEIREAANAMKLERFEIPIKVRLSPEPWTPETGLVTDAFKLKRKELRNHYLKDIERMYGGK

Q: For `Cc1nc2n(c(=O)c1CCN1CCC(c3noc4cc(F)ccc34)CC1)CCCC2` [risperidone, reference compound], which “clinical response to neuroleptic alone” value (schizophrenia [1]) is on record?
A: no substantial benefit

Q: For `COC(=O)C(c1ccccc1)C1CCCCN1` (stereo not drawn) [methylphenidate, reference compound], which “control of ADHD” value [2] is on record?
A: only partially controlled

Q: For `O=C(CCCN1CCC(O)(c2ccc(Cl)cc2)CC1)c1ccc(F)cc1` [haloperidol, reference compound], which “effect on hallucinations, drug alone” value (schizophrenia [3]) is on record?
A: stopped most of the hallucinations

Q: For `CCCCC/C=C\C/C=C\C/C=C\C/C=C\CCCC(=O)O` [AA, arachidonic acid, reference compound], which “FACL-4 activity for AA relative to DHA” value ([4]; relative to DHA) is on record?
A: more than twice as great as for DHA

Q: For `OCCOCCN1CCN(C2=Nc3ccccc3Sc3ccccc32)CC1` [quetiapine, reference compound], which “clinical response to neuroleptic alone” value (schizophrenia [1]) is on record?
A: no substantial benefit

Q: What does the source list for `CC/C=C\C/C=C\C/C=C\C/C=C\C/C=C\CCCC(=O)O` [EPA, all cis (or all z) 5,8, 11, 14, 17-eicosapentaenoic acid]?
A: tardive dyskinesia (tardive dyskinesia): substantial relief from tardive dyskinesia; inhibition of phospholipase A2 (phospholipase A2): known to inhibit phospholipase A2; MADRS, percentage improvement from baseline ([5]; 1 g ethyl-EPA per day): 35.7%; Total PANSS, percentage improvement from baseline ([5]; 1 g ethyl-EPA per day): 18.8%; negative PANSS, percentage improvement from baseline ([5]; 1 g ethyl-EPA per day): 22.7%; positive PANSS, percentage improvement from baseline ([5]; 1 g ethyl-EPA per day): 20.0%; MADRS, percentage improvement from baseline ([5]; 2 g ethyl-EPA per day): 35.7%; Total PANSS, percentage improvement from baseline ([5]; 2 g ethyl-EPA per day): 17.1%; negative PANSS, percentage improvement from baseline ([5]; 2 g ethyl-EPA per day): 22.7%; positive PANSS, percentage improvement from baseline ([5]; 2 g ethyl-EPA per day): 25.0%; affinity for FACL-4 [4]: unusually high affinity; FACL-4 activity for EPA, greater than for AA ([4]; relative to AA): 50%

Q: With `Cc1cc2c(s1)Nc1ccccc1N=C2N1CCN(C)CC1` [olanzapine, reference compound] as the molecule, how does the weight put on [6] read?
A: over 10 kg
